The values below come from patent publication US9913843B2, “Protein kinase C inhibitors and uses thereof” (Rigel Pharmaceuticals, Inc., priority 2012, dated 2018).

Structures are written as SMILES. Like-named read-outs stand apart in the source and are kept apart here.

The test system of the assay is PKC mediated IL-2 production in human primary T cells. Nature of the assay: IL-2 ELISA, human primary T cell, anti CD3+CD28+ (whole cell functional assay for PKC mediated IL-2 production). The class given is cell-based. The procedure, abridged:
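IL-2 in supernatants was quantified by ELISA after 24 h at 37 °C. Before stimulation with plate-coated anti-CD3 (1 μg/ml) and anti-CD28 (5 μg/ml), T cells expanded from PBMC were exposed to compound for 1 h; the counter-screen replaced antibodies with PMA 0.5 ng/ml and ionomycin 0.1 μM (final).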

`Cn1nnn(-c2cc(Nc3ncc(C#N)c(NC[C@@H]4CCCN5CCCC[C@H]45)n3)c(F)cc2OCC(C)(C)O)c1=O` [Compound 156, 2-((2-fluoro-4-(2-hydroxy-2-methylpropoxy)-5-(4-methyl-5-oxo-4,5-dihydro-1H-tetrazol-1-yl)phenyl)amino)-4-((((1S,9aR)-octahydro-2H-quinolizin-1-yl)methyl)amino)pyrimidine-5-carbonitrile]: the IC50 was less than 30000 nM (24 h, human primary T cells stimulated with anti-CD3 + anti-CD28, IL-2 by ELISA, read-out: IC50 for blocking IL-2 production) and 27.6 nM (human primary T cells stimulated with anti-CD3 + anti-CD28, 24 h, IL-2 by ELISA, 8 pt, read-out: IL2 ELISA, Human primary T cell, anti-CD3 + CD28, 8 pt (IC50)).

Broadly, the IC50 is the midpoint of a concentration-inhibition curve.
